According to US8071605B2, “Piperidine compounds for use in the treatment of bacterial infections” (AstraZeneca AB, priority 2008, dated 2011):

These compounds were tested against S. aureus GyrB ATPase (Staphylococcus aureus, UniProt P0A0K8) (assay: S. aureus GyrB ATPase inhibition (ammonium molybdate/malachite green phosphate detection)). Conditions: compound concentration of 1 μM (unless otherwise noted).
Assay type: biochemical
Procedure: E. coli GyrB ATPase Inhibition Activity: Compounds can be tested for inhibition of E. coli GyrB ATPase activity using an ammonium molybdate/malachite green-based phosphate detection assay (Lanzetta, P. A., L. J. Alvarez, P. S. Reinach, and O. A. Candia, 1979, 100: 95-97). Assays can be performed in multiwell plates in 30 μl reactions containing: 50 mM Hepes buffer pH 7.5, 75 mM ammonium acetate, 8.0 mM magnesium chloride, 0.5 mM ethylenediaminetetraacetic acid, 5% glycerol, 1 mM 1,4-Dithio-DL-threitol, 200 nM bovine serum albumin, 1.6 μg/ml sheared salmon sperm DNA, 400 pM E. coli GyrA, 400 pM E. coli GyrB, 250 μM ATP, and compound in dimethylsulfoxide. Reactions can be quenched with 30 μl of ammonium molybdate/malachite green detection reagent containing 1.2 mM malachite green hydrochloride, 8.5 mM ammonium molybdate tetrahydrate, and 1 M hydrochloric acid. Plates can be read in an absorbance plate reader at 650 nm and percent inhibition values are calculated using dimethylsulfoxide (2%)-containing reactions as 0% inhibition and EDTA-containing (2.4 μM) reactions as 100% inhibition controls. An IC50 measurement of compound potency for each compound can be determined from reactions performed in the presence of 10 different compound concentrations. E. coli Topoisomerase IV ATPase Inhibition Activity: Compounds can be tested for inhibition of E. coli topoisomerase IV ATPase activity as described above for E. coli GyrB except the 30 μl reactions contained the following: 20 mM TRIS buffer pH 8, 50 mM ammonium acetate, 8 mM magnesium chloride, 5% glycerol, 5 mM 1,4-Dithio-DL-threitol, 0.005% Brij-35, 5 μg/ml sheared salmon sperm DNA, 500 pM E. coli ParC, 500 pM E. coli ParE, 160 μM ATP, and compound in dimethylsulfoxide. An IC50 measurement of compound potency for each compound can be determined from reactions performed in the presence of 10 different compound concentrations. S. aureus GyrB ATPase Inhibition Activity: Compounds may be tested for inhibition of S. aureus GyrB ATPase activity using an ammonium molybdate/malachite green-based phosphate detection assay (Lanzetta, P. A., L. J. Alvarez, P. S. Reinach, and O. A. Candia, 1979, 100: 95-97). Assays can be performed in multiwell plates in 30 μl reactions containing: 50 mM Hepes buffer pH 7.5, 75 mM ammonium acetate, 8.0 mM magnesium chloride, 0.5 mM ethylenediaminetetraacetic acid, 5% glycerol, 1.0 mM 1,4-Dithio-DL-threitol, 200 nM bovine serum albumin, 1.0 μg/ml sheared salmon sperm DNA, 250 pM E. coli GyrA, 250 pM S. aureus GyrB, 250 μM ATP, and compound in dimethylsulfoxide. Reactions can be quenched with 30 μl of ammonium molybdate/malachite green detection reagent containing 1.2 mM malachite green hydrochloride, 8.5 mM ammonium molybdate tetrahydrate, and 1 M hydrochloric acid. Plates can be read in an absorbance plate reader at 650 nm and percent inhibition values can be calculated using dimethylsulfoxide (2%)-containing reactions as 0% inhibition and EDTA-containing (2.4 μM) reactions as 100% inhibition controls. An IC50 measurement of compound potency for each compound can be determined from reactions performed in the presence of 10 different compound concentrations.
Compounds of the invention were tested in an assay substantially similar to the assay described above for measuring the inhibition of S. aureus GyrB ATPase. Percent inhibition of S. aureus GyrB ATPase at a compound concentration of 1 μM (unless otherwise noted) is disclosed in the following table: […]

Sequence of S. aureus GyrB ATPase (P0AES4 whole entry): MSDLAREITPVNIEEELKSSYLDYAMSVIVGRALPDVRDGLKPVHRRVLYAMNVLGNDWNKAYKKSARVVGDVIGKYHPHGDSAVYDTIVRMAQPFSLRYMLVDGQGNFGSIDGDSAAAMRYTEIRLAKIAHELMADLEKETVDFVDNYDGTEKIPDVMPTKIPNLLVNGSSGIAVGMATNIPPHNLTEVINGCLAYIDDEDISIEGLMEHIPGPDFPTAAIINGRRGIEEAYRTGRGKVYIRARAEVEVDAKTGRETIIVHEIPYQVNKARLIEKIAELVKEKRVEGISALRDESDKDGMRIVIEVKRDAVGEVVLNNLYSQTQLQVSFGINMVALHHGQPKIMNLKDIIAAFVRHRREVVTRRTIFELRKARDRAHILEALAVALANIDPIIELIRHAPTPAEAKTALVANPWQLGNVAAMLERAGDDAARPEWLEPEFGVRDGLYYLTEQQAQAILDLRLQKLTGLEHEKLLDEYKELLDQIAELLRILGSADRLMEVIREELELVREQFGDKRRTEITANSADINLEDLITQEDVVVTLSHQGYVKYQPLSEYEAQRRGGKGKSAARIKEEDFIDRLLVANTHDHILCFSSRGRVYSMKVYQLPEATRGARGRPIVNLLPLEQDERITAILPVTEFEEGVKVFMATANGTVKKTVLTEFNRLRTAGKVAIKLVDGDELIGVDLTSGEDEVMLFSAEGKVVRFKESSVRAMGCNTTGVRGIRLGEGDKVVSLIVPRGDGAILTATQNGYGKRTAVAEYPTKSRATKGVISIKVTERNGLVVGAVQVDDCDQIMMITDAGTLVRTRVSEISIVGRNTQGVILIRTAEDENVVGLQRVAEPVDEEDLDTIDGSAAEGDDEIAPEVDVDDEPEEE
Sequence of S. aureus GyrB ATPase (P0A0K8 whole entry): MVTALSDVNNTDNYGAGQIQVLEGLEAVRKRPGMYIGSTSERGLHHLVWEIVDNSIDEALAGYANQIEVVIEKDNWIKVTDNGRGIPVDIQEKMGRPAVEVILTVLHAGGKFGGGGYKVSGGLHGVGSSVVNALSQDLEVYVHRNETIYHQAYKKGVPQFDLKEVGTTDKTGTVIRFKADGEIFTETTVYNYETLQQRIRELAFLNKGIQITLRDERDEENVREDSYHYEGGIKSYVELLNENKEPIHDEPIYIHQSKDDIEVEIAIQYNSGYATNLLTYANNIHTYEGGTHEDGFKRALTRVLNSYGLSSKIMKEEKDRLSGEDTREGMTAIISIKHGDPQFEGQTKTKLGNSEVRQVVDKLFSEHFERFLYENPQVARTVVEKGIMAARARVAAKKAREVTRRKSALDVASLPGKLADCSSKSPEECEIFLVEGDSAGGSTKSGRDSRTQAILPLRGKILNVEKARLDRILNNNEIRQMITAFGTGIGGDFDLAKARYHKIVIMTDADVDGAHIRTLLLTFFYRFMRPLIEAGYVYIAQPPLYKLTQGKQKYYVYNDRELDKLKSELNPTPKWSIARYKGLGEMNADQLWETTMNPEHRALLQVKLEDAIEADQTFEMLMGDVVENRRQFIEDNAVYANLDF

Structure (SMILES)	inhibition at 1 µM [%]
CCO[C@H]1CN(c2nc(-c3cnc(NCCN(C)C)cn3)c(C(=O)O)s2)CC[C@H]1NC(=O)c1[nH]c(C)c(Cl)c1Cl [Example 94]	104
CCO[C@H]1CN(c2nc(-c3cnc(NCCN4CCN(C)CC4)cn3)c(C(=O)O)s2)CC[C@H]1NC(=O)c1[nH]c(C)c(Cl)c1Cl [Example 95]	114
CCO[C@H]1CN(c2nc(-c3cnc(N4CCN(CC(C)C)CC4)cn3)c(C(=O)O)s2)CC[C@H]1NC(=O)c1[nH]c(C)c(Cl)c1Cl [Example 96]	104
CCO[C@H]1CN(c2nc(-c3cnc(N4CCN(CC5CCCN(C)C5)CC4)cn3)c(C(=O)O)s2)CC[C@H]1NC(=O)c1[nH]c(C)c(Cl)c1Cl (stereo partly shown) [Example 97]	112
CCO[C@H]1CN(c2nc(-c3cnc(N4CCN(CC5CCCCC5)CC4)cn3)c(C(=O)O)s2)CC[C@H]1NC(=O)c1[nH]c(C)c(Cl)c1Cl [Example 98]	116
CCO[C@H]1CN(c2nc(-c3cnc(N4CCN(C(CC)CC)CC4)cn3)c(C(=O)O)s2)CC[C@H]1NC(=O)c1[nH]c(C)c(Cl)c1Cl [Example 99]	106
CCO[C@H]1CN(c2nc(-c3cnc(N4CCN(CC)CC4)cn3)c(C(=O)O)s2)CC[C@H]1NC(=O)c1[nH]c(C)c(Cl)c1Cl [Example 100]	102
CCO[C@H]1CN(c2nc(-c3cnc(N4CCN(CCN(CC)CC)CC4)cn3)c(C(=O)O)s2)CC[C@H]1NC(=O)c1[nH]c(C)c(Cl)c1Cl [Example 101]	117
CCO[C@H]1CN(c2nc(-c3cnc(N4CCN[C@H](C)C4)cn3)c(C(=O)O)s2)CC[C@H]1NC(=O)c1[nH]c(C)c(Cl)c1Cl [Example 102]	112
CCO[C@H]1CN(c2nc(-c3cnc(N4CCN(CCO)CC4)cn3)c(C(=O)O)s2)CC[C@H]1NC(=O)c1[nH]c(C)c(Cl)c1Cl [Example 103]	102
CCO[C@H]1CN(c2nc(-c3cnc(N4CCN(CC5CCCO5)CC4)cn3)c(C(=O)O)s2)CC[C@H]1NC(=O)c1[nH]c(C)c(Cl)c1Cl (stereo partly shown) [Example 104]	105
CO[C@H]1CN(c2nc(-c3cnc(N4CCCCC4)cn3)c(C(=O)O)s2)CC[C@H]1NC(=O)c1[nH]c(C)c(Cl)c1Cl [Example 124]	112
CO[C@H]1CN(c2nc(-c3cnc(N4CCOCC4)cn3)c(C(=O)O)s2)CC[C@H]1NC(=O)c1[nH]c(C)c(Cl)c1Cl [Example 125]	111
CO[C@H]1CN(c2nc(-c3cnc(N4CCNCC4)cn3)c(C(=O)O)s2)CC[C@H]1NC(=O)c1[nH]c(C)c(Cl)c1Cl [Example 126]	108
CO[C@H]1CN(c2nc(-c3cnc(NCCN4CCCC4=O)cn3)c(C(=O)O)s2)CC[C@H]1NC(=O)c1[nH]c(C)c(Cl)c1Cl [Example 127]	110
COCCNc1cnc(-c2nc(N3CC[C@@H](NC(=O)c4[nH]c(C)c(Cl)c4Cl)[C@@H](OC)C3)sc2C(=O)O)cn1 [Example 128]	110
COCC(COC)Nc1cnc(-c2nc(N3CC[C@@H](NC(=O)c4[nH]c(C)c(Cl)c4Cl)[C@@H](OC)C3)sc2C(=O)O)cn1 [Example 129]	103

Structure (SMILES)	inhibition at 1 µM [%]
CO[C@H]1CN(c2nc(-c3cnc(NCCN4CCOCC4)cn3)c(C(=O)O)s2)CC[C@H]1NC(=O)c1[nH]c(C)c(Cl)c1Cl [Example 130]	107
CO[C@H]1CN(c2nc(-c3cnc(NCCN4CCNC4=O)cn3)c(C(=O)O)s2)CC[C@H]1NC(=O)c1[nH]c(C)c(Cl)c1Cl [Example 131]	108
CO[C@H]1CN(c2nc(-c3cnc(NCCN(C)C)cn3)c(C(=O)O)s2)CC[C@H]1NC(=O)c1[nH]c(C)c(Cl)c1Cl [Example 132]	103
CO[C@H]1CN(c2nc(-c3cnc(NCCN4CCN(C)CC4)cn3)c(C(=O)O)s2)CC[C@H]1NC(=O)c1[nH]c(C)c(Cl)c1Cl [Example 133]	112
CO[C@H]1CN(c2nc(-c3cnc(N4CCN(CC(C)C)CC4)cn3)c(C(=O)O)s2)CC[C@H]1NC(=O)c1[nH]c(C)c(Cl)c1Cl [Example 134]	104
CO[C@H]1CN(c2nc(-c3cnc(N4CCN(CC5CCCN(C)C5)CC4)cn3)c(C(=O)O)s2)CC[C@H]1NC(=O)c1[nH]c(C)c(Cl)c1Cl (stereo partly shown) [Example 135]	98
CO[C@H]1CN(c2nc(-c3cnc(N4CCN(CC5CCCCC5)CC4)cn3)c(C(=O)O)s2)CC[C@H]1NC(=O)c1[nH]c(C)c(Cl)c1Cl [Example 136]	104
CCC(CC)N1CCN(c2cnc(-c3nc(N4CC[C@@H](NC(=O)c5[nH]c(C)c(Cl)c5Cl)[C@@H](OC)C4)sc3C(=O)O)cn2)CC1 [Example 137]	101
CCN1CCN(c2cnc(-c3nc(N4CC[C@@H](NC(=O)c5[nH]c(C)c(Cl)c5Cl)[C@@H](OC)C4)sc3C(=O)O)cn2)CC1 [Example 138]	103
CO[C@H]1CN(c2nc(-c3cnc(N4CCN[C@H](C)C4)cn3)c(C(=O)O)s2)CC[C@H]1NC(=O)c1[nH]c(C)c(Cl)c1Cl [Example 140]	107
CO[C@H]1CN(c2nc(-c3cnc(N4CCN(CCO)CC4)cn3)c(C(=O)O)s2)CC[C@H]1NC(=O)c1[nH]c(C)c(Cl)c1Cl [Example 141]	103
CO[C@H]1CN(c2nc(-c3cnc(N4CCN(CC5CCCO5)CC4)cn3)c(C(=O)O)s2)CC[C@H]1NC(=O)c1[nH]c(C)c(Cl)c1Cl (stereo partly shown) [Example 142]	103
CCN1CCN(c2cnc(-c3nc(N4CC[C@@H](NC(=O)c5[nH]c(C)c(Cl)c5Cl)[C@@H](C)C4)sc3C(=O)O)cn2)CC1 [Example 164, 2-[(3S,4R)-4-{[(3,4-dichloro-5-methyl-1H-pyrrol-2-yl)carbonyl]amino}-3-methylpiperidin-1-yl]-4-[5-(4-ethylpiperazin-1-yl)pyrazin-2-yl]-1,3-thiazole-5-carboxylic acid]	117
Cc1[nH]c(C(=O)N[C@@H]2CCN(c3nc(-c4cnc(N5CCCCC5)cn4)c(C(=O)O)s3)C[C@@H]2C)c(Cl)c1Cl [Example 165, 2-[(3S,4R)-4-{[(3,4-dichloro-5-methyl-1H-pyrrol-2-yl)carbonyl]amino}-3-methylpiperidin-1-yl]-4-[5-(piperidin-1-yl)pyrazin-2-yl]-1,3-thiazole-5-carboxylic acid]	107
Cc1[nH]c(C(=O)N[C@@H]2CCN(c3nc(-c4cnc(N5CCOCC5)cn4)c(C(=O)O)s3)C[C@@H]2C)c(Cl)c1Cl [Example 166, 2-[(3S,4R)-4-{[(3,4-dichloro-5-methyl-1H-pyrrol-2-yl)carbonyl]amino}-3-methylpiperidin-1-yl]-4-[5-(morpholin-4-yl)pyrazin-2-yl]-1,3-thiazole-5-carboxylic acid]	110
Cc1[nH]c(C(=O)N[C@@H]2CCN(c3nc(-c4cnc(N5CCN(C)CC5)cn4)c(C(=O)O)s3)C[C@@H]2C)c(Cl)c1Cl [Example 167, 2-[(3S,4R)-4-{[(3,4-dichloro-5-methyl-1H-pyrrol-2-yl)carbonyl]amino}-3-methylpiperidin-1-yl]-4-[5-(4-methylpiperazin-1-yl)pyrazin-2-yl]-1,3-thiazole-5-carboxylic acid]	113
Cc1[nH]c(C(=O)N[C@@H]2CCN(c3nc(-c4cnc(N5CCNCC5)cn4)c(C(=O)O)s3)C[C@@H]2C)c(Cl)c1Cl [Example 168, 2-[(3S,4R)-4-{[(3,4-dichloro-5-methyl-1H-pyrrol-2-yl)carbonyl]amino}-3-methylpiperidin-1-yl]-4-[5-(piperazin-1-yl)pyrazin-2-yl]-1,3-thiazole-5-carboxylic acid]	102
